# Measurements reported in paper PMC12206033, “Selective inhibition of TRPV3 channel by natural rosmarinic acid and its analogs for alleviation of skin lesions through downregulation of NF-κB pathway” (The Journal of Biological Chemistry, 2025).
# Residue numbers refer to the chain shown, from its start.
# How the values were obtained:
# Type in all cases: cell-based
# [1] = target: T1, hTRPM8 (Homo sapiens, UniProt Q7Z2W7); assay: whole-cell patch-clamp of hTRPM8 currents activated by menthol; settings: ROSA 50 μM; agonist menthol 30 μM (legend: 500 μM)
# T1 construct: expressed in transfected cells; host or cells: HEK293T
# T1 sequence (Q7Z2W7 whole entry): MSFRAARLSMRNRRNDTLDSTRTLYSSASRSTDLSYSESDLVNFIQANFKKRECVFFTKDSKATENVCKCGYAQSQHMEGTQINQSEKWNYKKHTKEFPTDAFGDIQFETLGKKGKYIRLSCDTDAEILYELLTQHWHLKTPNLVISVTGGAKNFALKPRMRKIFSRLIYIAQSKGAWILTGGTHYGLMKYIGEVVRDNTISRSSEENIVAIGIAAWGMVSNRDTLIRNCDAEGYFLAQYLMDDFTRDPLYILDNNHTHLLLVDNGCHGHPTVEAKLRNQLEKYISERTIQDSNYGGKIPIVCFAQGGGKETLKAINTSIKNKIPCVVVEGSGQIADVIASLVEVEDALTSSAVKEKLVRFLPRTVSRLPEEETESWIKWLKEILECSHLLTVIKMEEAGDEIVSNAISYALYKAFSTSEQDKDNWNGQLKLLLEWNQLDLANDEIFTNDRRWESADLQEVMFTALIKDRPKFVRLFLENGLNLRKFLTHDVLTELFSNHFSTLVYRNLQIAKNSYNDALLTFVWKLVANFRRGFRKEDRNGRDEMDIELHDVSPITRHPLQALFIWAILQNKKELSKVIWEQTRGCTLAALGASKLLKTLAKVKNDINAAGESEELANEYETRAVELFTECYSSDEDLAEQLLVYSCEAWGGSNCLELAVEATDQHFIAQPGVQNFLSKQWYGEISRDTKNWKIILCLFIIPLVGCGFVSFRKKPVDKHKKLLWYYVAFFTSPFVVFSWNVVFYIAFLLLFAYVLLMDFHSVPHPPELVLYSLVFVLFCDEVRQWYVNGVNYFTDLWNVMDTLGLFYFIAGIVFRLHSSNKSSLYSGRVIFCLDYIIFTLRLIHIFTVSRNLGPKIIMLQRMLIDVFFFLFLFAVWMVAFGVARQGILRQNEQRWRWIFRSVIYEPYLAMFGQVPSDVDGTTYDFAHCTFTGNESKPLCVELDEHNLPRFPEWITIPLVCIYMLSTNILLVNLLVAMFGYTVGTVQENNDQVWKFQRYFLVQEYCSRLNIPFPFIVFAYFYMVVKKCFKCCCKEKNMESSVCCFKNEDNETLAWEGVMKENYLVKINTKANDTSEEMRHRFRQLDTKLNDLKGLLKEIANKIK
# Procedure: (§1) HEK293T cell line was obtained from the Cell Resource Center, Peking Union Medical College. HEK293T cells were maintained in Dulbecco’s modified Eagle’s medium (DMEM, Gibco) supplemented with 10% fetal bovine serum at 37 °C with 5% CO2. […] The next day, determine the plasmid transfection status by observing green fluorescence based on expression of enhanced GFP as an indicator. […] When conducting experiments on HEK293T cells transfected with G573S point mutant TRPV3 plasmid, we replaced culture medium with or without compounds after 4 h of transfection and then observed green fluorescence of HEK293T cell after 10 h. As for the relative fluorescence intensity, we convert the image to 8 bit grayscale using ImageJ (Https://imagej.net/software/fiji/downloads) and set an appropriate threshold value to reduce background noise and enhance the image contrast.
# (§2) All patch-clamp recordings were conducted 16 to 24 h after transfection using an EPC10 amplifier powered by PatchMaster software (HEKA) (https://www.heka.com/downloads/downloads_main.html#down_patchmaster) at room temperature. […] Currents were recorded at a potential ramp from −100 mV to +100 mV for 1000 ms with 1000-ms intervals (for whole-cell recordings) or a persistent potential of −60 mV (inside-out patch recordings). […]
# [2] = target: T2, TRPV3 T665A (Homo sapiens, UniProt Q8NET8, T665A); assay: whole-cell patch-clamp of hTRPV3 T665A mutant currents; settings: ROSA 100 μM; 2-APB; read-out: inhibition of macroscopic hTRPV3 T665A currents
# T2 construct: expressed in transfected cells; host or cells: HEK293T
# T2 sequence (Q8NET8 1-790 T665A): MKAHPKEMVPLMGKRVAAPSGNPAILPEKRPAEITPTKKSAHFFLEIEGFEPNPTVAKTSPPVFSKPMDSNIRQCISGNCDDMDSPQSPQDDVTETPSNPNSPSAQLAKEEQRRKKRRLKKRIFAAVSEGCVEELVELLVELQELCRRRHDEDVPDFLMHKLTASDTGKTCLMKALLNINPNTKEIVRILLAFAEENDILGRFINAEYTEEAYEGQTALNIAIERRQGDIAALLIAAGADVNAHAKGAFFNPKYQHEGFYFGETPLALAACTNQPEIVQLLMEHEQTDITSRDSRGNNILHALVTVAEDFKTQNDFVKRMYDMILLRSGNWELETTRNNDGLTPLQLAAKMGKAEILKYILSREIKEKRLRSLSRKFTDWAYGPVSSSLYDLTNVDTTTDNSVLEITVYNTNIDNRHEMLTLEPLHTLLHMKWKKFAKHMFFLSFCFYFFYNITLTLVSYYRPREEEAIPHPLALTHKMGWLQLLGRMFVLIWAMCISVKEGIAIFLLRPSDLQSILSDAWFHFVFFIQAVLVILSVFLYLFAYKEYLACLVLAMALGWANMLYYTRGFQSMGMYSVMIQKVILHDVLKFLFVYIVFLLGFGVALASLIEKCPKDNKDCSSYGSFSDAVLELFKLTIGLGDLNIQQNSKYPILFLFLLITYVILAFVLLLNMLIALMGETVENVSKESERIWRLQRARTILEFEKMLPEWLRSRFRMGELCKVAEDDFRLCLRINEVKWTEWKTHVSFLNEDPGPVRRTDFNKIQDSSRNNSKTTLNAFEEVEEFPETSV
# Procedure: as §1, §2
# [3] = system: HEK293T cells expressing hTRPV3; assay: Hoechst 33342/propidium iodide double staining cell death assay; settings: inhibitor 20 μM added 1 h before Car 300 μM
# Procedure: For cell death assay, HEK293T cells transfected with hTRPV3 were seeded in 6-well plates and randomly divided into different groups. TRPV3 and NF-κB inhibitors were added 1 h before the addition of Car. After administration of Car for 1 h, cell death was detected using Hoechst 33342/propidium iodide Double Stain Kit (Solarbio). After staining, cells were resuspended with PBS buffer. Five random view images in each group were taken under a microscope (Eclipse Ti, Nikon) and counted using ImageJ software (National Institutes of Health).
# [4] = target: T3, TRPV3 T636A (Homo sapiens, UniProt Q8NET8, T636A); assay: single-channel inside-out patch recordings of TRPV3 T636A mutant; settings: ROSA 100 μM co-applied with 2-APB 50 μM; n = 4
# T3 construct: expressed in transfected cells; host or cells: HEK293T
# T3 sequence (Q8NET8 1-790 T636A): T2 sequence (Q8NET8 1-790 T665A) with T636A, A665T
# Procedure: as §1, §2
compound,measurement,setting,value
"O=C(/C=C/c1ccc(O)c(O)c1)O[C@H](Cc1ccc(O)c(O)c1)C(=O)O [ROSA, rosmarinic acid]",inhibition of TRPM8 currents,[1],0.7 ± 6.7%
same,inhibition at 100 µM,[2],19.1%
same,cell death ratio,[3],17%
same,"single-channel open probability, T636A mutant",[4],0.67
